The values below come from patent publication US20240315992A1, “AMINOXY ACID-BASED ANTIBACTERIAL COMPOUNDS AND METHODS THEREOF” (The University of Hong Kong, priority 2023, published 2024).

The structures appear in SMILES notation. Converted amounts (≈) assume the structure as drawn.

Common to all, as to assay type: cell-based
For one series, the system named is MRSA-USA300. In words: MIC by CLSI broth micro-dilution, MRSA-USA300. The note with it: Staphylococcus aureus, read-out: Minimum inhibitory concentration. As to the method:
(§1) Aminoxy acids were synthesized by the standard peptide coupling procedures. Minimum inhibitory concentration was determined using CLSI broth micro-dilution method in 96-wells microtitre plates. Minimum inhibitory concentration is defined as the lowest concentration of the compound that inhibits visible growth of the bacteria. All experiments were performed three times. 24 compounds including aminoxy acid monomers and dipeptides have been identified to show toxicity against multidrug resistant Staphylococcus aureus Mu3 and summarized in Table 1. The minimum inhibitory concentration of compound 8 and compound 35 on other gram-positive bacteria was also evaluated and summarized in Table 2. […] As shown in FIGS. 3A-3B there are no observable hemolysis for compound 8 and compound 35 towards human red blood cell.
(§2) Bacteria were streaked from the glycerol stock into BHI agar and were incubated overnight. Single colony was picked for the overnight culture in cation-adjusted Mueller Hinton broth (CAMH), LB or BHI. The overnight culture was sub-cultured and regrew to exponential phase for the experiment.
(§3) MIC was determined by CLSI broth micro-dilution method in 96-wells microtitre plates. […] Optical density was recorded by DTX 880 multimode detector (Beckman Coulter, California, US). […]
(In general: Broth dilution looks for growth in wells or tubes with falling amounts of substance.)

In series [1] the test system is L. monocytogenes clinical strain. In words: MIC by CLSI broth micro-dilution, L. monocytogenes. The note with it: Listeria monocytogenes, BHI medium, read-out: Minimum inhibitory concentration. As to the method:
as §1, §2, §3

The next series concerns human red blood cell. The experiment in a line: Hemolysis assay. The note with it: up to the highest concentration 100 μM, 2 hours, 37° C. As to the method:
FIGS. 3A-3B are diagrams showing the hemolysis ability of compound 8 (FIG. 3A) and compound 35 (FIG. 3B) towards human red blood cell. % Hemolysis were mean±S.D of biological triplicates normalized to 0.1% triton X-100 as positive control.
Citrate-phosphate-dextrose (CPD) human whole blood was obtained from Hong Kong Red Cross. Whole blood was centrifuged in 1000 rpm for 10 minutes to remove the upper plasma layer. The remaining portion was washed by 1×PBS 3 times or until the upper PBS layer was transparent. The upper PBS layer was removed and the lower blood cell layer was diluted into 2% in PBS. 200 μL 2% blood in PBS was then added to round-bottom 96-well plate. Compounds were subsequently added to 96-well plate on 1% DMSO concentration. After incubation in 37° C. for 2 hours, the round-bottom 96-well plate was centrifuged in 1000 rpm for 10 minutes. 50 μL supernatant was transferred to a flat-bottom 96-well plate. Absorbance at 405 nm was then measured by Beckman Coulter DTX 880 Multimode Detector. Biological replicates were performed.

The subject of series [2] is Staphylococcus aureus ATCC 35556 biofilm formation. In words: Inhibition of biofilm formation (crystal violet). The note with it: 24 hours treatment, also sub-inhibitory concentration. As for the experimental part: Staphylococcus aureus ATCC 35556 was treated with various concentrations of compound 8, compound 35 or 1% DMSO as negative control for 24 hours. Biofilm was quantified using crystal violet. The data were normalized to DMSO (100% biofilm) and represent average values±S.D. (n=9 per group). Statistical analysis was performed by ANOVA with Dunnett's post-test to calculate p-values adjusted for multiple comparisons with DMSO as control condition (*p<0.05; **p<0.01; ***p<0.001).
Briefly, overnight cultures of Staphylococcus aureus ATCC 35556 in Tryptic Soy Broth (TSB) were sub-cultured from an overnight culture 1:100 for 2.5 hours. The bacteria were diluted 1:100 into fresh TSB and 200 μL bacteria in TSB was added to each well of a flat-bottomed 96-well plate (200 μL/well). Compounds (two-fold serial dilutions; final DMSO concentration of maximum 1%) were added. Plates were incubated at 37° C. for 24 hours. After 24 hours, the supernatant was removed and washed by PBS (200 μL) 2 times. Biofilms were dried at 37° C. for 30 minutes. 1% Crystal violet (25% ethanol in H2O) was diluted 1:5 in PBS and 200 μL was added to each well, followed by incubation at room temperature for 10 minutes. […] Following a 1:4 dilution step (33% acetic acid), optical density was measured at 595 nm by Beckman Coulter DTX 880 Multimode Detector. […]

Series [3] concerns E. faecalis clinical strain. The experiment in a line: MIC by CLSI broth micro-dilution, E. faecalis. The note with it: Enterococcus faecalis, BHI medium, read-out: Minimum inhibitory concentration. As to the method:
as §1, §2, §3

In the next series the test system is MSSA ATCC 6538. The experiment in a line: MIC by CLSI broth micro-dilution, MSSA ATCC 6538. The note with it: Staphylococcus aureus, read-out: Minimum inhibitory concentration. As for the experimental part:
as §1, §2, §3

Regarding `CC(C)C[C@H](ONC(=O)[C@@H](COCc1ccccc1)ONC(=O)c1cc(C(F)(F)F)cc(C(F)(F)F)c1)C(=O)Nc1ccccc1` [Compound 8], the MIC stood at 3.13 µM (≈ 2.05 µg/mL) in the series on MRSA-USA300, 6.25 µM (≈ 4.1 µg/mL) in series [1], 3.13 µM (≈ 2.05 µg/mL) in series [3] and 3.13 µM (≈ 2.05 µg/mL) in the series on MSSA ATCC 6538. In the series on human red blood cell, the “hemolytic activity on human blood cell” value is recorded as “didn't have observable hemolytic activity”. Moreover, the “formation of the Staphylococcus aureus biofilm” value in series [2] was “significantly inhibited the formation of the Staphylococcus aureus biofilm even under sub-inhibitory concentration”.

With `CC(C)C[C@H](ONC(=O)[C@@H](COCc1ccccc1)ONC(=O)c1cc(C(F)(F)F)cc(C(F)(F)F)c1)C(=O)Nc1ccc2c(c1)OC(F)(F)O2` [Compound 35], the MIC in the series on MRSA-USA300 stood at 3.13 µM (≈ 2.3 µg/mL); in series [1], 0.78 µM (≈ 0.574 µg/mL); in series [3], 6.25 µM (≈ 4.6 µg/mL); in the series on MSSA ATCC 6538, 1.56 µM (≈ 1.15 µg/mL). Further, the “hemolytic activity on human blood cell” value with human red blood cell is recorded as “didn't have observable hemolytic activity”. Besides, the “formation of the Staphylococcus aureus biofilm” value in series [2] was “significantly inhibited the formation of the Staphylococcus aureus biofilm even under sub-inhibitory concentration”.
